Test results: ChEMBL document CHEMBL4649984, “CBP30, a selective CBP/p300 bromodomain inhibitor, suppresses human Th17 responses” (Proc Natl Acad Sci U S A, 2015)
pIC50: −log10 of the molar value. Where “and” joins values, the source holds several entries; their conditions need not be identical. Equal entries are not always repeated.

Legend:
[1] = target: Nuclear body protein SP140 (Homo sapiens) (UniProt Q13342); settings: Compound concentration 10.0 uM, Protein concentration 2.0 uM
[2] = target: Transcription initiation factor TFIID subunit 1-like (Homo sapiens) (UniProt Q8IZX4); settings: Compound concentration 10.0 uM, Protein concentration 2.0 uM
Peregrin (Homo sapiens) [3] = target: Peregrin (Homo sapiens) (UniProt P55201); settings: Compound concentration 10.0 uM, Protein concentration 2.0 uM
[4] = target: Histone-lysine N-methyltransferase ASH1L (Homo sapiens) (UniProt Q9NR48); settings: Compound concentration 10.0 uM, Protein concentration 2.0 uM
[5] = target: Transcription intermediary factor 1-beta (Homo sapiens) (UniProt Q13263); settings: Compound concentration 10.0 uM, Protein concentration 2.0 uM
[6] = target: Bromodomain-containing protein 2 (Homo sapiens) (UniProt P25440); settings: Compound concentration 10.0 uM, Protein concentration 2.0 uM
[7] = target: Bromodomain-containing protein 2 (Homo sapiens) (UniProt P25440); settings: Compound concentration 10.0 uM, Protein concentration 2.0 uM; remark: listed apart in the source
[8] = target: Nucleosome-remodeling factor subunit BPTF (Homo sapiens) (UniProt Q12830); settings: Compound concentration 10.0 uM, Protein concentration 2.0 uM
[9] = target: Bromodomain and WD repeat-containing protein 1 (Homo sapiens) (UniProt Q9NSI6); settings: Compound concentration 10.0 uM, Protein concentration 2.0 uM
[10] = target: Bromodomain testis-specific protein (Homo sapiens) (UniProt Q58F21); settings: Compound concentration 10.0 uM, Protein concentration 2.0 uM
Peregrin (Homo sapiens) [11] = target: Peregrin (Homo sapiens) (UniProt P55201); settings: Compound concentration 10.0 uM, Protein concentration 2.0 uM; remark: listed apart in the source
[12] = target: Protein polybromo-1 (Homo sapiens) (UniProt Q86U86); settings: Compound concentration 10.0 uM, Protein concentration 2.0 uM
Sequence of Protein polybromo-1 (Homo sapiens) (Q86U86 whole entry): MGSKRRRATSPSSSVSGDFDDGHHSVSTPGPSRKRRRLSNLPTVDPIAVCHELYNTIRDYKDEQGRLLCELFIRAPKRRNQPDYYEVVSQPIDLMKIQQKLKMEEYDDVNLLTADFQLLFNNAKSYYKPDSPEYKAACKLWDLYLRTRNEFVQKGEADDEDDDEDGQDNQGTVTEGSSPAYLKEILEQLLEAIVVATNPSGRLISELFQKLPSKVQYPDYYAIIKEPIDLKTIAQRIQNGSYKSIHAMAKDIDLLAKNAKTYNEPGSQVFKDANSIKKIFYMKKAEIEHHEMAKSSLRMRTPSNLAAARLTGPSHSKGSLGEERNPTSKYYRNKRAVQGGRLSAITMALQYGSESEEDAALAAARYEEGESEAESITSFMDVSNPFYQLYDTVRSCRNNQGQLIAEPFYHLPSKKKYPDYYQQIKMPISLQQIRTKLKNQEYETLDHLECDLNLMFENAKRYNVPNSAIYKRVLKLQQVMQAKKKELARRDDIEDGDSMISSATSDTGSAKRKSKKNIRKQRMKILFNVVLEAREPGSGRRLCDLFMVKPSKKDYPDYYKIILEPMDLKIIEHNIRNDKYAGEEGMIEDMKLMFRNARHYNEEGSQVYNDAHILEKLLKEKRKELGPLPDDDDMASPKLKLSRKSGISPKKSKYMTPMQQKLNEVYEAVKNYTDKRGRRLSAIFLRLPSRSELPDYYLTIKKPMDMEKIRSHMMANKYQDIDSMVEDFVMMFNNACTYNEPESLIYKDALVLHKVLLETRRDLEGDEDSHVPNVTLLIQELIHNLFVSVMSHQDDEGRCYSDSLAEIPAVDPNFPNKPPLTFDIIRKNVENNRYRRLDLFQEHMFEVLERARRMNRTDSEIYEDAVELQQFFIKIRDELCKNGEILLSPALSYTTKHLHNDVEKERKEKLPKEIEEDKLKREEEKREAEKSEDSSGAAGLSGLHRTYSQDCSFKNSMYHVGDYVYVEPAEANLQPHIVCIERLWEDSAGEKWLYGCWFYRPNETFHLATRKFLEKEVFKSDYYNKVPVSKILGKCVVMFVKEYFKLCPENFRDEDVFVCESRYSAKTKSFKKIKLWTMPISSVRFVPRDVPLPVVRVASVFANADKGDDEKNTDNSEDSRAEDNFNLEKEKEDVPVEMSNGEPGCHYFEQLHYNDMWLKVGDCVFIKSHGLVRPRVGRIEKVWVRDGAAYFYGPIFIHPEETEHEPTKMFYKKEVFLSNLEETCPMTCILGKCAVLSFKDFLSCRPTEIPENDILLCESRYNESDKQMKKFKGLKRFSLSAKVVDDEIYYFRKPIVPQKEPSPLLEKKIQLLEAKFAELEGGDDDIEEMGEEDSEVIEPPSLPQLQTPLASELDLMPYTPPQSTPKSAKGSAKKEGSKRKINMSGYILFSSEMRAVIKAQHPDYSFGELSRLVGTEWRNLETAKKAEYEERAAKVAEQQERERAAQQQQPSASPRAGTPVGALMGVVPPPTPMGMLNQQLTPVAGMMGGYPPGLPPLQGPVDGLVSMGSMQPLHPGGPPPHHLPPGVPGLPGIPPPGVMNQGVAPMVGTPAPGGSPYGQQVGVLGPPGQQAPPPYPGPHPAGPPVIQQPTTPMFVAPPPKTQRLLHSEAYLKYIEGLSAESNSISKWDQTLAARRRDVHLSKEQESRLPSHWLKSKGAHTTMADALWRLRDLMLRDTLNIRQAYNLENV

[13] = target: PH-interacting protein (Homo sapiens) (UniProt Q8WWQ0); settings: Compound concentration 10.0 uM, Protein concentration 2.0 uM
[14] = target: Histone acetyltransferase KAT2A (Homo sapiens) (UniProt Q92830); settings: Compound concentration 10.0 uM, Protein concentration 2.0 uM
[15] = target: CREB-binding protein (Homo sapiens) (UniProt Q92793); settings: Compound concentration 10.0 uM, Protein concentration 2.0 uM
[16] = target: Protein polybromo-1 (Homo sapiens) (UniProt Q86U86); assay: Thermal Shift Assay. Domain start/stop: H23-D159; settings: Compound concentration 10.0 uM, Protein concentration 2.0 uM
[17] = target: Histone acetyltransferase KAT2B (Homo sapiens) (UniProt Q92831); settings: Compound concentration 10.0 uM, Protein concentration 2.0 uM
[18] = target: SWI/SNF-related matrix-associated actin-dependent regulator of chromatin subfamily A member 4 (Homo sapiens) (UniProt P51532); settings: Compound concentration 10.0 uM, Protein concentration 2.0 uM
[19] = target: Protein polybromo-1 (Homo sapiens) (UniProt Q86U86); settings: Compound concentration 10.0 uM, Protein concentration 2.0 uM; remark: listed apart in the source
[20] = target: PH-interacting protein (Homo sapiens) (UniProt Q8WWQ0); settings: Compound concentration 50.0 uM, Protein concentration 0.025 uM
[21] = target: Transcription initiation factor TFIID subunit 1-like (Homo sapiens) (UniProt Q8IZX4); settings: Compound concentration 10.0 uM, Protein concentration 2.0 uM; remark: listed apart in the source
[22] = target: Transcription intermediary factor 1-alpha (Homo sapiens) (UniProt O15164); settings: Compound concentration 10.0 uM, Protein concentration 2.0 uM
[23] = target: SWI/SNF-related matrix-associated actin-dependent regulator of chromatin subfamily A member 2 (Homo sapiens) (UniProt P51531); settings: Compound concentration 10.0 uM, Protein concentration 2.0 uM
[24] = target: T1, Bromodomain-containing protein 4 (Homo sapiens, UniProt O60885); settings: Compound concentration 10.0 uM, Protein concentration 2.0 uM
[25] = target: Bromodomain adjacent to zinc finger domain protein 2B (Homo sapiens) (UniProt Q9UIF8); settings: Compound concentration 10.0 uM, Protein concentration 2.0 uM
[26] = target: Bromodomain-containing protein 3 (Homo sapiens) (UniProt Q15059); assay: Thermal Shift Assay. Domain start/stop: P24-E144; settings: Compound concentration 10.0 uM, Protein concentration 2.0 uM
[27] = target: Bromodomain and PHD finger-containing protein 3 (Homo sapiens) (UniProt Q9ULD4); settings: Compound concentration 10.0 uM, Protein concentration 2.0 uM
[28] = target: Bromodomain adjacent to zinc finger domain protein 1A (Homo sapiens) (UniProt Q9NRL2); settings: Compound concentration 10.0 uM, Protein concentration 2.0 uM
[29] = target: Protein polybromo-1 (Homo sapiens) (UniProt Q86U86); assay: Thermal Shift Assay. Domain start/stop: R487-D598; settings: Compound concentration 10.0 uM, Protein concentration 2.0 uM
[30] = target: Transcription initiation factor TFIID subunit 1 (Homo sapiens) (UniProt P21675); settings: Compound concentration 10.0 uM, Protein concentration 2.0 uM
Sequence of Transcription initiation factor TFIID subunit 1 (Homo sapiens) (P21675 whole entry): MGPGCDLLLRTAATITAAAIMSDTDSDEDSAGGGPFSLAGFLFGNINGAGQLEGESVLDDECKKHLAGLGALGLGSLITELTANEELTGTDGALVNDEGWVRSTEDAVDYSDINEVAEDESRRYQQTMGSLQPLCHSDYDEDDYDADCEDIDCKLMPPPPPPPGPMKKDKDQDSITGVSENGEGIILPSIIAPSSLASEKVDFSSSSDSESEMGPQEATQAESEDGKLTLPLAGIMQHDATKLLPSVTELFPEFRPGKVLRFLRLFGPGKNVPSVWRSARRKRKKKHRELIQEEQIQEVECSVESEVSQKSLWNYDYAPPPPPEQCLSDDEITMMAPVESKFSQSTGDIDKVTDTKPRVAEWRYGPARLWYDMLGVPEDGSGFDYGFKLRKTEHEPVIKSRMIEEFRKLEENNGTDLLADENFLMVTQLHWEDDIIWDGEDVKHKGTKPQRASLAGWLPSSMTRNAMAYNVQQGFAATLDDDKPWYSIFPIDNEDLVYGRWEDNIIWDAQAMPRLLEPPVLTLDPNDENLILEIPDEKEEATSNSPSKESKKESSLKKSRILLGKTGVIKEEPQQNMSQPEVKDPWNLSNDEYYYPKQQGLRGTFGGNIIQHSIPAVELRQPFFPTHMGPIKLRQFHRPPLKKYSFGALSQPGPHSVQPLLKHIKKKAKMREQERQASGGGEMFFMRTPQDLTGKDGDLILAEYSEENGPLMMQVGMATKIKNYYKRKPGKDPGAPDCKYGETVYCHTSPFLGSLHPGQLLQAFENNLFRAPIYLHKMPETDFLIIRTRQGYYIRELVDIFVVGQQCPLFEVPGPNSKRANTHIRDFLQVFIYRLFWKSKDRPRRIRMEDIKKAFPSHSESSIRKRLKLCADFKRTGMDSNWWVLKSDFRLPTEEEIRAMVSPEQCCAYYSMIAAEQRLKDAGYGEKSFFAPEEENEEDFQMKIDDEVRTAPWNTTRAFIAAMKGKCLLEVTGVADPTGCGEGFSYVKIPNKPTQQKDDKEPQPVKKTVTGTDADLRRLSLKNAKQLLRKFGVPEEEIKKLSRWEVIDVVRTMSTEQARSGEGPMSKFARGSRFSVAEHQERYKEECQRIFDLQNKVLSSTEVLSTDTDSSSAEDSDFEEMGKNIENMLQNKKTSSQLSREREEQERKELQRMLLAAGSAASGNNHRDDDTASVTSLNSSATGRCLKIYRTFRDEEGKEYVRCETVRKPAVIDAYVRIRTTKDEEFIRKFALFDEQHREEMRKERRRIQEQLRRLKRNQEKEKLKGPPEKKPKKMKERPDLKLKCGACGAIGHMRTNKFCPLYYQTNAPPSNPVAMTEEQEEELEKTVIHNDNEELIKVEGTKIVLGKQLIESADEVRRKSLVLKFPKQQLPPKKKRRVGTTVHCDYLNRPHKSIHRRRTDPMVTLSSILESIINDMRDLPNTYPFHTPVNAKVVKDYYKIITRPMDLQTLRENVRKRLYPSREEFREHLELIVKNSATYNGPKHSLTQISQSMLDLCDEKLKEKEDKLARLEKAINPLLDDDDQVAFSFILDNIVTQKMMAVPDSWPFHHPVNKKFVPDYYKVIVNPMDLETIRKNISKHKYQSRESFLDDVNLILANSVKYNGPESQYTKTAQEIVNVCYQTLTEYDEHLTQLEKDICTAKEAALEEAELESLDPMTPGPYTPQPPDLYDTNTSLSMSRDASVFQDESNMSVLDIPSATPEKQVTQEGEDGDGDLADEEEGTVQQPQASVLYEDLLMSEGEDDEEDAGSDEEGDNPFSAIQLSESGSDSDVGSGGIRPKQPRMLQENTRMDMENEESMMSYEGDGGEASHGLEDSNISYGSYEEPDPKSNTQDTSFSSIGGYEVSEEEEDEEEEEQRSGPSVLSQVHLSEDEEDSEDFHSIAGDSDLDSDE

[31] = target: Bromodomain-containing protein 1 (Homo sapiens) (UniProt O95696); settings: Compound concentration 10.0 uM, Protein concentration 2.0 uM
[32] = target: Nuclear body protein SP140-like protein (Homo sapiens) (UniProt Q9H930); settings: Compound concentration 10.0 uM, Protein concentration 2.0 uM
[33] = target: Protein polybromo-1 (Homo sapiens) (UniProt Q86U86); settings: Compound concentration 10.0 uM, Protein concentration 2.0 uM; remark: listed apart in the source
[34] = target: Tripartite motif-containing protein 66 (Homo sapiens) (UniProt O15016); assay: Thermal Shift Assay. Domain start/stop: M1091-S1218; settings: Compound concentration 10.0 uM, Protein concentration 2.0 uM
[35] = target: Chromatin remodeling regulator CECR2 (Homo sapiens) (UniProt Q9BXF3); settings: Compound concentration 10.0 uM, Protein concentration 2.0 uM
Sequence of Chromatin remodeling regulator CECR2 (Homo sapiens) (Q9BXF3 whole entry, looked up, the tested form may be a part): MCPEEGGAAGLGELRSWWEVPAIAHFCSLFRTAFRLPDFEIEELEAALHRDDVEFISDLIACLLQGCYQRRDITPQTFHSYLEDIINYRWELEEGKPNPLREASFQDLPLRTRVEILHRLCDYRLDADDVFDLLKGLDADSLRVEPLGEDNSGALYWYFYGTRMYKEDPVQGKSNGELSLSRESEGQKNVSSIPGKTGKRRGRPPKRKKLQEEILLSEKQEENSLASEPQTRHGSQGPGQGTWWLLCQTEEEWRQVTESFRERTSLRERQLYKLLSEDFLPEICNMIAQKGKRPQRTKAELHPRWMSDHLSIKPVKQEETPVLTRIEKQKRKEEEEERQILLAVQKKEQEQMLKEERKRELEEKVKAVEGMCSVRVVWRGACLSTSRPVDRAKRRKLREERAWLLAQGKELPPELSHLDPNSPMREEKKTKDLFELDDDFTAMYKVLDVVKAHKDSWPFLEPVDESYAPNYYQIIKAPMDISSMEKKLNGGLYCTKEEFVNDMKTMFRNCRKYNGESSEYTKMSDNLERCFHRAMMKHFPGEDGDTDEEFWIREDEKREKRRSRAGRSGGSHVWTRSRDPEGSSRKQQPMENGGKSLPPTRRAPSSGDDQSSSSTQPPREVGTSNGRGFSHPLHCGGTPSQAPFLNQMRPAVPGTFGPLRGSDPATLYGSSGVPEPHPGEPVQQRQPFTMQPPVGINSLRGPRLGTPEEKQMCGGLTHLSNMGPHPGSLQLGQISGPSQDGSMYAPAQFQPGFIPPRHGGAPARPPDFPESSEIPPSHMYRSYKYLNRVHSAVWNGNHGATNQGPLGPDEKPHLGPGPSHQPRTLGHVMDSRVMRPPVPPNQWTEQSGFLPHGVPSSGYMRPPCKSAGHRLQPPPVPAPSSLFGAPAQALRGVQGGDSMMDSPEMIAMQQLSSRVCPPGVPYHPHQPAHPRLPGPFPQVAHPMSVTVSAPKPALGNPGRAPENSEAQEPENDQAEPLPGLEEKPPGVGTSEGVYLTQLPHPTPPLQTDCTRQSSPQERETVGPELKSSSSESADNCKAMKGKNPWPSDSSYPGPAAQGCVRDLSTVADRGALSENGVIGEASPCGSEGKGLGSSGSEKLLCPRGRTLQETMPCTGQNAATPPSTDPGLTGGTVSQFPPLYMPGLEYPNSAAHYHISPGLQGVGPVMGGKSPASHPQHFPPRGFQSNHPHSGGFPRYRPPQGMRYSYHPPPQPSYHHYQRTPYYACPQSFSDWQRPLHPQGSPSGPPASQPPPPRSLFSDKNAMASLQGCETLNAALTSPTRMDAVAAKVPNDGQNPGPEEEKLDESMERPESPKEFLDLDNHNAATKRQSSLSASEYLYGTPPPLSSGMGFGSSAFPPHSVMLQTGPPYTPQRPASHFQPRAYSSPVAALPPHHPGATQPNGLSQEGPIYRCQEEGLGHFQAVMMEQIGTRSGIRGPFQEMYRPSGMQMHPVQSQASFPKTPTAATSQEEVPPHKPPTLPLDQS

[36] = target: Histone acetyltransferase p300 (Homo sapiens) (UniProt Q09472); assay: Thermal Shift Assay. Domain start/stop: A1040-S1171; settings: Compound concentration 10.0 uM, Protein concentration 2.0 uM
[37] = target: Bromodomain and WD repeat-containing protein 3 (Homo sapiens) (UniProt Q6RI45); settings: Compound concentration 10.0 uM, Protein concentration 2.0 uM
[38] = target: ATPase family AAA domain-containing protein 2 (Homo sapiens) (UniProt Q6PL18); settings: Compound concentration 10.0 uM, Protein concentration 2.0 uM
[39] = target: Protein polybromo-1 (Homo sapiens) (UniProt Q86U86); settings: Compound concentration 10.0 uM, Protein concentration 2.0 uM; remark: listed apart in the source
[40] = target: T1, Bromodomain-containing protein 4; assay: Alphascreen assay. Binding to BRD4A (domain start/stop: N44-E168) by alphascreen assay
[41] = target: Histone acetyltransferase p300 (Homo sapiens) (UniProt Q09472); settings: Compound concentration 10.0 uM, Protein concentration 2.0 uM
[42] = target: Bromodomain-containing protein 3 (Homo sapiens) (UniProt Q15059); settings: Compound concentration 10.0 uM, Protein concentration 2.0 uM
[43] = target: Bromodomain adjacent to zinc finger domain protein 2A (Homo sapiens) (UniProt Q9UIF9); settings: Compound concentration 10.0 uM, Protein concentration 2.0 uM
[44] = target: Transcription initiation factor TFIID subunit 1 (Homo sapiens) (UniProt P21675); settings: Compound concentration 10.0 uM, Protein concentration 2.0 uM; remark: listed apart in the source
[45] = target: Bromodomain testis-specific protein (Homo sapiens) (UniProt Q58F21); settings: Compound concentration 10.0 uM, Protein concentration 2.0 uM; remark: listed apart in the source
[46] = target: Chromatin remodeling regulator CECR2 (Homo sapiens) (UniProt Q9BXF3); settings: Compound concentration 20.0 uM, Protein concentration 12.5 uM
[47] = target: Bromodomain adjacent to zinc finger domain protein 2B (Homo sapiens) (UniProt Q9UIF8); assay: Alphascreen assay. Domain start/stop: S1858-S1972; settings: Compound concentration 25.0 uM, Protein concentration 25.0 uM
[48] = target: Bromodomain-containing protein 9 (Homo sapiens) (UniProt Q9H8M2); settings: Compound concentration 10.0 uM, Protein concentration 2.0 uM
[49] = target: ATPase family AAA domain-containing protein 2 (Homo sapiens) (UniProt Q6PL18); settings: Compound concentration 25.0 uM, Protein concentration 200.0 uM
Description: Alphascreen assay. Domain start/stop: Q981-R1108

[50] = target: ATPase family AAA domain-containing protein 2B (Homo sapiens) (UniProt Q9ULI0); settings: Compound concentration 10.0 uM, Protein concentration 2.0 uM

With `COc1ccc(CCc2nc3cc(-c4c(C)noc4C)ccc3n2C[C@H](C)N2CCOCC2)cc1Cl` as the compound, how does the ΔTm [1] read?
Its ΔTm is 0.37 °C.

What about the ΔTm [2] of the same compound?
Its ΔTm is -0.06 °C.

And the ΔTm (Peregrin (Homo sapiens) [3])?
The ΔTm was 0.42 °C.

What about the ΔTm [4] of the same compound?
The ΔTm was -0.29 °C.

And the ΔTm [5]?
Its ΔTm is 0.49 °C and -0.34 °C.

And the ΔTm [6]?
Its ΔTm is 0.99 °C.

And the ΔTm [7]?
The ΔTm was 1.41 °C.

What about the ΔTm [8] of the same compound?
Its ΔTm is 0.21 °C and -1.05 °C.

And the ΔTm [9]?
Its ΔTm is 0.96 °C.

What about the ΔTm [10] of the same compound?
Its ΔTm is 0.66 °C.

And the ΔTm (Peregrin (Homo sapiens) [11])?
Its ΔTm is 1.46 °C.

What about the ΔTm [12] of the same compound?
Its ΔTm is 0.12 °C.

And the ΔTm [13]?
The ΔTm was 0.57 °C.

And the ΔTm [14]?
Its ΔTm is 0.17 °C.

And the ΔTm [15]?
Its ΔTm is 10.2 °C and 9.55 °C.

And the ΔTm [16]?
Its ΔTm is 0.03 °C.

What about the ΔTm [17] of the same compound?
Its ΔTm is 0.46 °C.

And the ΔTm [18]?
Its ΔTm is 0.34 °C.

What about the ΔTm [19] of the same compound?
Its ΔTm is 0.46 °C.

What about the inhibition [20] of the same compound?
The inhibition was 35.5% and 42.4%.

And the ΔTm [21]?
Its ΔTm is 1.11 °C.

What about the ΔTm [22] of the same compound?
The ΔTm was 0.67 °C.

And the ΔTm [23]?
Its ΔTm is 0.06 °C.

And the ΔTm [24]?
The ΔTm was 0.56 °C.

What about the ΔTm [25] of the same compound?
Its ΔTm is 0.17 °C.

And the ΔTm [26]?
Its ΔTm is 1.83 °C.

And the ΔTm [27]?
The ΔTm was 0.46 °C.

What about the ΔTm [28] of the same compound?
Its ΔTm is -0.45 °C.

What about the ΔTm [29] of the same compound?
Its ΔTm is 0.23 °C.

And the ΔTm [30]?
The ΔTm was 0.26 °C and 0.07 °C.

And the ΔTm [31]?
The ΔTm was 0.43 °C and 0.36 °C.

What about the ΔTm [32] of the same compound?
Its ΔTm is 0.17 °C.

And the ΔTm [33]?
The ΔTm was 0.23 °C.

And the ΔTm [34]?
The ΔTm was 0.82 °C.

And the ΔTm [35]?
The ΔTm was 0.18 °C and 1.55 °C.

And the ΔTm [36]?
The ΔTm was 9.68 °C.

And the ΔTm [37]?
Its ΔTm is 0.97 °C.

And the ΔTm [38]?
Its ΔTm is -2.5 °C.

What about the ΔTm [39] of the same compound?
The ΔTm was 0.46 °C and -0.03 °C.

What about the pIC50 [40] of the same compound?
The pIC50 was 4.56 and 5.15.

What about the ΔTm [41] of the same compound?
Its ΔTm is 10.2 °C.

And the ΔTm [42]?
Its ΔTm is 1.25 °C.

And the ΔTm [43]?
Its ΔTm is -0.18 °C.

And the ΔTm [44]?
The ΔTm was -0.12 °C.

And the ΔTm [45]?
Its ΔTm is 0.37 °C.

And the inhibition [46]?
Its inhibition is 58.8%.

And the inhibition [47]?
The inhibition was 24%.

What about the ΔTm [48] of the same compound?
The ΔTm was -0.12 °C and -0.5 °C.

What about the inhibition [49] of the same compound?
The inhibition was 24.4%.

What about the ΔTm [50] of the same compound?
The ΔTm was 0.45 °C.
